Article PMC8426299, “Effect of severe renal impairment on the pharmacokinetics of brigatinib” (Investigational New Drugs, 2021)
Entries after “also recorded” stand apart in the source; their conditions may differ. Where two headings read alike, the source gives them in different places.

How the values were obtained:
[1] = cited from earlier work
[2] = design: method as in PMID 32816246; details: eGFR 30 to < 90 mL/min/1.73 m^2; population PK analyses; cited from earlier work
[3] = test system: ALK + NSCLC; design: method as in PMID 32780660; details: cited from earlier work
[4] = Urinary pharmacokinetics after single oral dose of brigatinib 90 mg; assay type: in vivo, human; details: for CL renal: human, oral, 90 mg; for CL renal / Ae0–168, Range / Ae0–168, amount of brigatinib excreted from time zero to 168 hours, mean (SD) / Fe0–168, Range: urine
Description: (§1) Blood samples were collected before brigatinib administration (predose) and at 0.5, 1, 1.5, 2, 2.5, 3, 4, 6, 8, 12, 24, 36, 48, 60, 72, 96, 120, 144, and 168 h after brigatinib administration to determine plasma brigatinib concentrations. Urine was collected predose and during intervals (0–8, 8–12, 12–24, 24–48, 48–72, 72–96, 96–120, and 120–168 h) after brigatinib administration to determine urine brigatinib concentrations. Urine samples were subsequently diluted 50:50 (v:v) urine:isopropanol at the clinical site.
(§2) Plasma and urine samples were analyzed by Charles River Laboratories, Inc. (Worcester, MA, USA) by LC-MS/MS, as previously reported. Plasma samples were analyzed using a dual-range assay with a lower limit of quantitation of 0.100 ng/mL and an upper limit of 2500 ng/mL [11]. Urine samples were analyzed using a single-range assay with a lower limit of quantitation of 25.0 ng/mL and upper limit of 2500 ng/mL [11].
(§3) Individual participant plasma concentration-time profiles were analyzed via noncompartmental analysis methods using Phoenix WinNonlin (version 6.4) to estimate PK parameters. Plasma PK parameters calculated for brigatinib included maximum observed plasma concentration (Cmax); Tmax; area under the plasma concentration-time curve from time zero to the time of the last measurable concentration (AUC0 − last); AUC from time zero to infinity (AUC0−∞); terminal elimination half-life (t1/2); apparent oral clearance (CL/F); and apparent volume of distribution (V/F). The fraction of unbound brigatinib in plasma was determined using the following formula: % free (unbound) = [free brigatinib concentration measured in buffer after RED]/[total concentration measured in plasma] X 100. Unbound brigatinib plasma PK parameters (except unbound CL/F and V/F, which were calculated as total CL/F or total V/F divided by the overall mean fraction unbound) were calculated using the following formula: unbound PK parameter = (parameter based on total concentrations) x (individual participant’s overall mean fraction unbound value). Urinary PK parameters included the amount of brigatinib excreted from time zero to time t (Ae0 − t,), fraction of the dose excreted (%) from time zero to time t (Fe0 − t), and renal clearance (CLR).

[5] = Open-label single-dose (brigatinib 90 mg oral, fasting) plasma pharmacokinetic study, severe renal impairment vs matched healthy volunteers; assay type: in vivo, human; design: Cmax,u LS Mean (SE): unit not given beside the values; details: for half-life / Cmax: human, plasma, 90 mg; for half-life: oral, after a single dose, read-out: mean t1/2 (converted); for Cmax: po, read-out: total brigatinib Cmax, geometric mean (CV%); for Cmax / Tmax, median (range): single oral 90 mg; for V/F,u, geometric mean (geometric % CV): unbound apparent volume of distribution; for Cmax,u, Range / Cmax,u, geometric mean (geometric % CV): unbound
Description: This was an open-label, parallel-group study that enrolled patients with severe renal impairment and matched healthy volunteers with normal renal function. The study consisted of a 28-day screening period and a single nine-day inpatient treatment period (day − 1 to day 8). On the morning of day 1, each participant received a single oral dose of brigatinib 90 mg under fasting conditions.Participants were required to abstain from food for approximately 10 h prior to study drug administration and for approximately four hours postdose, with the exception of the standardized snack. Due to the high prevalence of diabetes in patients with severe renal impairment, the standardized snack (not high fat or high calorie) was given to all participants at 2.5 h postdose. Water was permitted ad libitum except for one hour prior to dosing and for approximately one hour postdose. Participants underwent end-of-study procedures and were discharged from the clinical site on day 8.
Healthy volunteers with normal renal function (eGFR ≥ 90 mL/min/1.73 m^2) were matched to patients with severe renal impairment by age (± 10 years), sex, body mass index (BMI; ±15 % at screening), and if possible, smoking habits. Patients with severe renal impairment were defined as those with an eGFR < 30 mL/min/1.73 m^2. eGFR was calculated using the Modification of Diet in Renal Disease equation (MDRD). Estimated creatinine clearance was based on the Cockcroft-Gault equation.
as §1, §2, §3
Descriptive statistics, including number of observations (n), arithmetic mean, standard deviation (SD), coefficient of variation (CV%), median, minimum, and maximum, were calculated for each time point for brigatinib plasma concentrations in each study group. […]

[6] = brigatinib vs crizotinib, P < 0.0001
[7] = severe renal impairment compared with normal renal function
[8] = Severe Renal Impairment (n = 8)
[9] = healthy volunteers with normal renal function
[10] = patients with severe renal impairment

CL renal ([4]; Normal Renal Function (n=8), read-out: CLR, Range): 27.5 to 63.7 mL/min | CL renal ([4]; Normal Renal Function (n=8), read-out: CLR, renal clearance, mean (SD)): 41.5 mL/min | CL renal ([4]; Severe Renal Impairment (n=8), read-out: CLR, Range): 5.4 to 13.4 mL/min | CL renal ([4]; Severe Renal Impairment (n=8), read-out: CLR, renal clearance, mean (SD)): 9.17 mL/min | renal clearance as share of overall clearance of brigatinib ([4]; in vivo): approximately 25% | renal clearance of unbound brigatinib, fold lower [4, 7]: approximately five-fold | reduction of fraction of dose excreted in urine 0 to 168 h ([4]; severe renal impairment vs normal renal function): approximately 50% | nonrenal clearance, percent lower ([4]; severe renal impairment vs normal renal function, derived from renal clearance share): approximately 50% | Ae0–168, Range ([4]; Normal Renal Function (n=8)): 11.58 to 21.77 mg | Ae0–168, amount of brigatinib excreted from time zero to 168 hours, mean (SD) ([4]; Normal Renal Function (n=8)): 16.90 (3.57) mg | Fe0–168, Range ([4]; Normal Renal Function (n=8)): 12.9–24.2% | Ae0–168, Range ([4]; Severe Renal Impairment (n=7)): 3.92 to 14.36 mg | Ae0–168, amount of brigatinib excreted from time zero to 168 hours, mean (SD) ([4]; Severe Renal Impairment (n=7)): 7.58 (3.77) mg | Fe0–168, Range ([4]; Severe Renal Impairment (n=7)): 4.36–16.0% | V/F,u, Range ([5]; Normal Renal Function (n = 8)): 5898–13,744 L | V/F,u, Range [5, 8]: 3556 to 8914 L | Cmax,u LS Mean (SE) ([5]; Severe renal impairment vs. Normal renal function): 0.130 (0.1330) | half-life [5, 9]: ~42 h | half-life [5, 10]: ~54 h | Cmax [5, 9]: 362 ng/mL | Cmax [5, 10]: 471 ng/mL | Tmax, median (range) ([5]; normal renal function group): 2.0 (1.0–4.0) hours | total brigatinib AUC0 − last, percent higher [5, 7]: more than 100% | total brigatinib AUC0−∞, percent higher [5, 7]: more than 100% | Tmax, median (range) ([5]; severe renal impairment group): 2.5 (1.0–3.0) hours | unbound brigatinib AUC0 − last, percent higher ([5]; severe renal impairment versus normal renal function): 77% | V/F,u, geometric mean (geometric % CV) ([5]; Normal Renal Function (n = 8)): 8327 (30.4) L | V/F,u, geometric mean (geometric % CV) [5, 8]: 5532 (31.4) L | Cmax,u, Range ([5]; Normal Renal Function (n = 8)): 23.9 to 45.3 ng/mL | Cmax,u, geometric mean (geometric % CV) ([5]; Normal Renal Function (n = 8)): 32.29 (25.1) ng/mL | Cmax,u, Range [5, 8]: 25.2 to 55.6 ng/mL | Cmax,u, geometric mean (geometric % CV) [5, 8]: 36.76 (29.0) ng/mL
SMILES: COc1cc(N2CCC(N3CCN(C)CC3)CC2)ccc1Nc1ncc(Cl)c(Nc2ccccc2P(C)(C)=O)n1 [brigatinib]
dose proportionality / linearity of systemic exposure [1]: dose proportional over the dose range of 60 mg to 240 mg qd; also recorded: dose-linear and time-independent PK | geometric mean accumulation ratio after repeat dosing [1]: 1.9 to 2.4 | oral dose excreted unchanged in the urine [1]: approximately 25% | median time to reach maximum plasma concentration (Tmax) ([1]; postdose): 1 to 3 h | effect of mild or moderate renal impairment on brigatinib exposure / PK [2]: not associated with clinically meaningful effects on brigatinib PK; also recorded: not found to impact brigatinib exposure | 24-month PFS, blinded independent review committee-assessed ([3]; ALK inhibitor-naive patients): 48% | 24-month PFS, investigator-assessed ([3]; ALK inhibitor-naive patients): 56% | PFS hazard ratio [95 % CI], blinded independent review committee-assessed [3, 6]: 0.49 | PFS hazard ratio [95 % CI], investigator-assessed [3, 6]: 0.43 [0.31–0.61]
